According to US8889704B2 (Array BioPharma Inc., priority 2011, dated 2014):
pIC50: −log10 of the molar value. Structures can show the parent of a compound that is named as a salt.

Key:
Format in all cases: biochemical
recombinant rat PIM-3 = recombinant rat PIM-3 (Rattus norvegicus, UniProt O70444); test: PIM-3 Assay (as Example A); details: averaged IC50; 30 μM ATP, 3.75 μM PIM2tide, 0.5 nM PIM-3
Outline: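 Recombinant rat PIM-3 (0.5 nM) with 3.75 μM PIM2tide and 30 μM [γ-33P]ATP in MOPS pH 7.4 buffer, 60 min at 22 °C; labelled peptide captured on phosphocellulose filters and counted by scintillation. 10-point curve (top dose 10 μM, 2% DMSO); IC50 from 4-parameter fit of percent of control.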

PIM-1 = PIM-1 (Homo sapiens, UniProt P11309); test: Enzyme PIM-1 Assay ([33P]ATP incorporation into PIM2tide, filter plate); details: averaged IC50; 35 μM ATP, 7.5 μM PIM2tide, 0.25 nM PIM-1, 60 min at 22° C.
Sequence of PIM-1 (P11309 whole entry, species assumed): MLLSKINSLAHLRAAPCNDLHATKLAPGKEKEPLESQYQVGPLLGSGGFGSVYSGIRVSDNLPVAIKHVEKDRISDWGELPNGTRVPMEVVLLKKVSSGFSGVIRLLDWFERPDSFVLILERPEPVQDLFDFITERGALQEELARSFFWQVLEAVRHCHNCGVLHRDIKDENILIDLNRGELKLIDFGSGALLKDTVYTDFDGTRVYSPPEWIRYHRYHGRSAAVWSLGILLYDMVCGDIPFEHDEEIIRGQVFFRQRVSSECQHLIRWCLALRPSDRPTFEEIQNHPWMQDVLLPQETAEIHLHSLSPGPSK
Outline: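 Radiometric assay: 0.25 nM PIM-1 phosphorylates 7.5 μM PIM2tide with 35 μM [γ-33P]ATP in 20 mM MOPS pH 7.4, 10 mM MgCl2, 1 mM DTT, 0.005% Tween-20, 60 min at 22 °C. Product captured on P81 filters, scintillation counted; 10-point 3-fold curve from 10 μM top, 2% DMSO, IC50 by 4-parameter logistic fit of POC.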

[1] = target: T1, GST-tagged recombinant full-length human Pim-2 (Homo sapiens, UniProt Q9P1W9); test: PIM-2 Assay (as Example A); details: averaged IC50; 4 μM ATP, 1.0 μM PIM2tide, 1.5 nM Pim-2
T1 construct: GST-tagged recombinant full-length human Pim-2; GST
T1 sequence (Q9P1W9 whole entry): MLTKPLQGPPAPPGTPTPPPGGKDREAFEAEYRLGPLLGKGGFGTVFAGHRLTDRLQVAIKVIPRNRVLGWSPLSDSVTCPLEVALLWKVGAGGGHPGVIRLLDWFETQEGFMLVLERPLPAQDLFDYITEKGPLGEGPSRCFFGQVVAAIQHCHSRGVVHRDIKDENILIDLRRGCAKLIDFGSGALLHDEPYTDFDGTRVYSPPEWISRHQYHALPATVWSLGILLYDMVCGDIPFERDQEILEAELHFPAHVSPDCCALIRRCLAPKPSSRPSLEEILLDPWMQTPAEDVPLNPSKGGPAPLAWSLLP
Outline: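 Radiometric filter-binding assay: GST-tagged full-length human Pim-2 (1.5 nM) phosphorylates 1.0 μM PIM2tide with 4 μM [γ-33P]ATP for 60 min at 22 °C in pH 7.4 MOPS buffer, 2% DMSO. 10-point 3-fold dilutions from 10 μM top dose; IC50 from 4-parameter fit of percent of control.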

Compound	pIC50 (recombinant rat PIM-3)	pIC50 (PIM-1)	pIC50 [1]
COCC(C)(C)Oc1cc(F)cc2ccc(-c3nnc4ccc([C@@H](N5CC[C@H](N)C5)C(F)(F)F)cn34)nc12 [Example 264, (S)-1-((R)-2,2,2-trifluoro-1-(3-(6-fluoro-8-(1-methoxy-2-methylpropan-2-yloxy)quinolin-2-yl)-[1,2,4]triazolo[4,3-a]pyridin-6-yl)ethyl)pyrrolidin-3-amine formate]	8.89	9.27	6.59
COc1cccc2ccc(-c3nnc4ccc([C@@H](N5CC[C@H](N)C5)C(F)(F)F)cn34)nc12 [Example 9, (S)-1-((R)-2,2,2-trifluoro-1-(3-(8-methoxyquinolin-2-yl)-[1,2,4]triazolo[4,3-a]pyridin-6-yl)ethyl)pyrrolidin-3-amine dihydrochloride]	8.38	9.17	6.39
FC(F)(F)[C@@H](c1ccc2nnc(-c3ccc4ccc(Br)cc4n3)n2c1)N1C[C@@H]2C[C@H]1CN2 [Example 68, 2-(6-((R)-1-(1S,4S)-2,5-diazabicyclo[2.2.1]heptan-2-yl)-2,2,2-trifluoroethyl)-[1,2,4]triazolo[4,3-a]pyridin-3-yl)-7-bromo quinoline dihydrochloride]	7.85	8.39	< 7.00
COC[C@@H](C)Oc1cc(F)cc2ccc(-c3nnc4ccc([C@H](N5CC[C@](C)(N)C5)C(F)(F)F)cn34)nc12 [Example 221, (S)-3-methyl-1-((S)-2,2,2-trifluoro-1-(3-(6-fluoro-8-((R)-1-methoxypropan-2-yloxy)quinolin-2-yl)-[1,2,4]triazolo[4,3-a]pyridin-6-yl)ethyl)pyrrolidin-3-amine dihydrochloride]	9.00	9.39	6.89
CO[C@@H](C)COc1ccc2ccc(-c3nnc4ccc([C@H](N5CC[C@](C)(N)C5)C(F)(F)F)cn34)nc2c1 [Example 304, (S)-3-methyl-1-((S)-2,2,2-trifluoro-1-(3-(7-((S)-2-methoxypropoxy)quinolin-2-yl)-[1,2,4]triazolo[4,3-a]pyridin-6-yl)ethyl)pyrrolidin-3-amine]	9.52	9.59	7.19
CC(C)C(=O)Nc1ccc2ccc(-c3nnc4ccc(C(N5CC[C@H](N)C5)C(F)(F)F)cn34)nc2c1 (stereo partly drawn) [Example 44, N-(2-(6-(1-((S)-3-aminopyrrolidin-1-yl)-2,2,2-trifluoroethyl)-[1,2,4]triazolo[4,3-a]pyridin-3-yl)quinolin-7-yl)isobutyramide]	9.70	9.89	7.54
CC(C)Oc1cccc2ccc(-c3nnc4ccc([C@@H](N5CC[C@H](NCCO)C5)C(F)(F)F)cn34)nc12 [Example 101, 2-((S)-1-((R)-2,2,2-trifluoro-1-(3-(8-isopropoxyquinolin-2-yl)-[1,2,4]triazolo[4,3-a]pyridin-6-yl)ethyl)pyrrolidin-3-ylamino)ethanol dihydrochloride]	9.10	9.82	7.40
CCOCCOc1ccc2ccc(-c3nnc4ccc([C@H](N5CC[C@](C)(N)C5)C(F)(F)F)cn34)nc2c1 [Example 306, (S)-1-((S)-1-(3-(7-(2-ethoxyethoxy)quinolin-2-yl)-[1,2,4]triazolo[4,3-a]pyridin-6-yl)-2,2,2-trifluoroethyl)-3-methylpyrrolidin-3-amine]	9.15	9.55	6.55
N[C@H]1CCN([C@H](c2ccc3nnc(-c4ccc5cccc(C6(CO)CC6)c5n4)n3c2)C(F)(F)F)C1 [Example 114, (1-(2-(6-((R)-1-((S)-3-aminopyrrolidin-1-yl)-2,2,2-trifluoroethyl)-[1,2,4]triazolo[4,3-a]pyridin-3-yl)quinolin-8-yl)cyclopropyl)methanol dihydrochloride]	9.52	10.22	8.25
COc1c(C2CC2)ccc2ccc(-c3nnc4ccc([C@@H](N5CC[C@H](N)C5)C(F)(F)F)cn34)nc12 [Example 69, (S)-1-((R)-1-(3-(7-cyclopropyl-8-methoxyquinolin-2-yl)-[1,2,4]triazolo[4,3-a]pyridin-6-yl)-2,2,2-trifluoroethyl)pyrrolidin-3-amine dihydrochloride]	9.30	9.68	7.42
Cc1cc(-c2cc3nc(-c4nnc5ccc([C@@H](N6CC[C@H](N)C6)C(F)(F)F)cn45)ccc3cc2F)n(C)n1 [Example 204, (3 S)-1-((1R)-1-(3-(7-(1,3-dimethyl-1H-pyrazol-5-yl)-6-fluoroquinolin-2-yl)-[1,2,4]triazolo[4,3-a]pyridin-6-yl)-2,2,2-trifluoroethyl)pyrrolidin-3-amine dihydrochloride]	8.52	9.32	< 6.00
CC(C)Oc1cccc2ccc(-c3nnc4ccc([C@H](N5CC[C@](C)(N)C5)C(F)(F)F)cn34)nc12 [Example 92, (S)-3-methyl-1-((S)-2,2,2-trifluoro-1-(3-(8-isopropoxyquinolin-2-yl)-[1,2,4]triazolo[4,3-a]pyridin-6-yl)ethyl)pyrrolidin-3-amine dihydrochloride]	9.10	9.66	7.48
N[C@H]1CCN([C@H](c2ccc3nnc(-c4ccc5cc(F)c(OC6CCOCC6)cc5n4)n3c2)C(F)(F)F)C1 [Example 156, (S)-1-((R)-2,2,2-trifluoro-1-(3-(6-fluoro-7-(tetrahydro-2H-pyran-4-yloxy)quinolin-2-yl)-[1,2,4]triazolo[4,3-a]pyridin-6-yl)ethyl)pyrrolidin-3-amine hydrochloride]	9.40	9.82	7.42

Other lines, results leading:

pIC50 (recombinant rat PIM-3)	pIC50 (PIM-1)	pIC50 [1]	Compound
7.92	8.78	< 6.00	N[C@H]1CCN([C@H](c2ccc3nnc(-c4ccc5ccc(OC(F)(F)F)cc5n4)n3c2)C(F)(F)F)C1 [Example 239, (S)-1-((R)-2,2,2-trifluoro-1-(3-(7-(trifluoromethoxy)quinolin-2-yl)-[1,2,4]triazolo[4,3-a]pyridin-6-yl)ethyl)pyrrolidin-3-amine dihydrochloride]
9.15	9.55	6.64	CO[C@H](C)COc1ccc2ccc(-c3nnc4ccc([C@@H](N5CC[C@H](N)C5)C(F)(F)F)cn34)nc2c1 [Example 277, (S)-1-((R)-2,2,2-trifluoro-1-(3-(7-((R)-2-methoxypropoxy)quinolin-2-yl)-[1,2,4]triazolo[4,3-a]pyridin-6-yl)ethyl)pyrrolidin-3-amine dihydrochloride]
8.07	9.24	< 6.00	CC(C)C(=O)OCCOc1cc2nc(-c3nnc4ccc([C@@H](N5CC[C@H](N)C5)C(F)(F)F)cn34)ccc2cc1F [Example 285, 2-(2-(6-((R)-1-((S)-3-aminopyrrolidin-1-yl)-2,2,2-trifluoroethyl)-[1,2,4]triazolo[4,3-a]pyridin-3-yl)-6-fluoroquinolin-7-yloxy)ethyl isobutyrate]
8.52	9.18	6.34	COCC(C)(C)Oc1cccc2ccc(-c3nnc4ccc([C@@H](N5CC[C@H](N)C5)C(F)(F)F)cn34)nc12 [Example 263, (S)-1-((R)-2,2,2-trifluoro-1-(3-(8-(1-methoxy-2-methylpropan-2-yloxy)quinolin-2-yl)-[1,2,4]triazolo[4,3-a]pyridin-6-yl)ethyl)pyrrolidin-3-amine formate]
8.77	9.40	6.02	CCOCCOc1ccc2ccc(-c3nnc4ccc([C@@H](N5CC[C@H](N)C5)C(F)(F)F)cn34)nc2c1 [Example 274, (S)-1-((R)-1-(3-(7-(2-ethoxyethoxy)quinolin-2-yl)-[1,2,4]triazolo[4,3-a]pyridin-6-yl)-2,2,2-trifluoroethyl)pyrrolidin-3-amine dihydrochloride]
9.40	9.70	7.14	N[C@H]1CCN([C@H](c2ccc3nnc(-c4ccc5cc(F)c(OCCO)cc5n4)n3c2)C(F)(F)F)C1 [Example 123, 2-(2-(6-((R)-1-((S)-3-aminopyrrolidin-1-yl)-2,2,2-trifluoroethyl)-[1,2,4]triazolo[4,3-a]pyridin-3-yl)-6-fluoroquinolin-7-yloxy)ethanol hydrochloride]
8.33	9.68	7.11	N[C@H]1CCN([C@H](c2ccc3nnc(-c4ccc5cccc(OC(F)(F)F)c5n4)n3c2)C(F)(F)F)C1 [Example 40, (S)-1-((R)-2,2,2-trifluoro-1-(3-(8-(trifluoromethoxy)quinolin-2-yl)-[1,2,4]triazolo[4,3-a]pyridin-6-yl)ethyl)pyrrolidin-3-amine dihydrochloride]
< 7.00	7.45	< 7.00	CC(C)NC(=O)c1cccc2ccc(-c3nnc4ccc([C@@H](N5CC[C@H](N)C5)C(F)(F)F)cn34)nc12 [Example 87, 2-(6-((R)-1-((S)-3-aminopyrrolidin-1-yl)-2,2,2-trifluoroethyl)-[1,2,4]triazolo[4,3-a]pyridin-3-yl)-N-isopropylquinoline-8-carboxamide dihydrochloride]
